Assay results: patent publication US12435088B2, “Salicyl-adenosinemonosulfamate analogs and uses thereof” (priority 2018, dated 2025)
≈ marks a conversion by molar mass, not a printed value. Read-outs that look alike come from different tables or passages of the source. Marks after values point to notes of the source that are not given here.

Columns and labels:
Msm WT = test: Growth inhibition microdilution assay, Msm WT; format: cell-based, Mycobacterium smegmatis
Msm ΔM = format: cell-based, Mycobacterium smegmatis
M. smegmatis ΔEM-pMbtAtb [1] = test: Post-antibiotic effect (PAE) washout assay
Protocol: Cells from mid-log growth phase cultures of Msm ΔEM-pMbtAtb in GASTD medium (37° C., 170 rpm, OD600≈0.75) were harvested by centrifugation and washed in GASTD medium (3 times with I culture volume). The washed cells were resuspended in GASTD medium and transferred to U-bottom 96-well cell culture plates (Corning, Inc.) for inhibitor exposure at a cell density corresponding to OD600=1.0 (50 μL/well). […] Inhibitors were added from 10% DMSO stock solutions, with a final DMSO concentration of 1% in both inhibitor-exposed cultures and DMSO controls (no inhibitor). […] The 96-well plates were incubated for culture growth at 37° C. in a FLUOstar Optima microplate reader (BMG Labtech, Inc.), and OD600 readings were taken every 30 min following plate shaking (5 min, 200 rpm) for 5 days. The growth vs. time datasets were analyzed to determine the time at which cultures reached an exponential growth phase threshold of OD600=0.05 (≈5% of maximal growth) (FIG. 8). The time-to-threshold data were used to calculate PAE as the difference between the time-to-threshold values of the inhibitor-exposed culture and the control cultures (Stubbings, W. J., et al. (2004) J. Antimicrob. Chemother. 54, 139-143). Data presented are derived from three independent experiments.

Mtb = conditions: cited from earlier work
[2] = test system: MBT production in Msm ΔEM-pMbtAtb; format: cell-based, Mycobacterium smegmatis; conditions: FIG. 7, radio-TLC
Msm ΔEM = format: cell-based, Mycobacterium smegmatis; conditions: GASTD + Fe medium
mammalian cells = conditions: cited from earlier work
M. smegmatis ΔEM-pMbtAtb [3] = test: microbe, parasite or virus in culture; format: cell-based, Mycobacterium smegmatis; conditions: for MIC (μg/ml), mean / MIC (μg/ml), range: GASTD medium, three independent experiments
MbtAtb = MbtAtb (Mycobacterium tuberculosis (strain ATCC 25618 / H37Rv), UniProt P71716); conditions: cited from earlier work
Msm ΔE = format: cell-based, Mycobacterium smegmatis
M. tuberculosis H37Rv = test: Growth inhibition assay (Alamar Blue MIC) for M. tuberculosis H37Rv; format: cell-based, Mycobacterium tuberculosis; conditions: at least 90% inhibition, 7 days
H10MbtA^opt (MbtAtb) [4] = molecular target: T1, H10MbtA^opt (MbtAtb) (Mycobacterium tuberculosis (strain ATCC 25618 / H37Rv), UniProt P71716); test: biochemical
H10MbtA^opt (MbtAtb) [5] = molecular target: T1, H10MbtA^opt (MbtAtb); test: Progress curve analysis of H10MbtA^opt inhibition (HA-MesG assay); format: biochemical
PPT/PNP coupling system = test: Off-target control: effect on PPT/PNP coupling system of the HA-MesG assay; format: biochemical
Protocol: The adenylation activity of H10MbtA^opt and its inhibition were evaluated using a H10MbtA^opt-optimized variation of the hydroxylamine-7-methyl-6-thioguanosine (HA-MesG) spectrophotometric assay (Wilson, D. J., et al. (2010) Anal. Biochem. 404, 56-63). The assay was carried out in a 96-well plate format as previously reported (Davis, T. D., et al. (2016) Bioorg. Med. Chem. Lett. 26, 5340-5345). The assay reaction mixture was optimized for H10MbtAopt activity. Optimization experiments included evaluation of various concentrations of Tris·HCl (and pH), hydroxylamine, MesG, ATP, NaCl, MgCl2, glycerol, reducing agents (DTT and TCEP), and detergent (IGEPAL, CHAPS, and Triton-X100). Unless otherwise indicated for specific experiments, the optimized assay reaction mixture contained the following: 50 mM Tris·HCl, pH 8.0; 3 mM MgCl2; 0.5 mM DTT; 0.1 U purine nucleoside phosphorylase (PNP); 0.04 U inorganic pyrophosphatase (PPT); 450 mM hydroxylamine; 0.4 mM MesG; 1 mM ATP; 300 μM salicylic acid; 0.01% CHAPS buffer; 7.5% ultrapure glycerol; and H10MbtA^opt at concentrations noted for specific experiments. […] Reactions were preincubated for 10 min at 25° C. before being initiated by the addition of either salicylic acid for steady state kinetic analysis or H10MbtA^opt for progress curve analysis. The phosphorolysis of MesG was measured continuously at either regular 1-min intervals (for steady state kinetic analysis) or 25-sec intervals (for progress curves analysis) for up to 45 min, at 360 nm and 25° C. in a DTX 880 multimode detector microplate reader (Beckman Coulter, Inc.).

[6] = Table 8, GASTD + Fe medium, tested up to 64 μg/mL
[7] = IC50 (nM), H10MbtA^opt at 250 nM, two independent dose-response experiments
[8] = IC50, preliminary dose-response experiment (vi/vo vs. log[inhibitor]), FIG. 4A-C, single experiment, inhibition of H10MbtA^opt
[9] = Mycolicibacterium smegmatis, read-out: MIC (μg/ml), mean

T1 sequence (P71716 whole entry, added parts left off): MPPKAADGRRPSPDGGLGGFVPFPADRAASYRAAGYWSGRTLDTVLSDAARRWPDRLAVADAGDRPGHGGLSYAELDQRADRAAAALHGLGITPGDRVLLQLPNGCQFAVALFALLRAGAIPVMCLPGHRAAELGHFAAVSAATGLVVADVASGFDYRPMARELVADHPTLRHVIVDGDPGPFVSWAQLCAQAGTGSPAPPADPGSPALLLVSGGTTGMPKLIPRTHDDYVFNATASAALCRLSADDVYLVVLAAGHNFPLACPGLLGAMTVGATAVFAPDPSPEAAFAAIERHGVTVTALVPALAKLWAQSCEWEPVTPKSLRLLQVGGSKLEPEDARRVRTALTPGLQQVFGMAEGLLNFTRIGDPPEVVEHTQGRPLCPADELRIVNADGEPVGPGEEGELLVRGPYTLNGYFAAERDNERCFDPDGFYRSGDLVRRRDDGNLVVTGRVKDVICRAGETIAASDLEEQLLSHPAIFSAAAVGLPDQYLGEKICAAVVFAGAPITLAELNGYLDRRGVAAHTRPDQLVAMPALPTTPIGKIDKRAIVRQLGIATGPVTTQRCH
Sequence of MbtAtb (P71716 whole entry, looked up): as the sequence (P71716 whole entry, added parts left off) above

Compound	PAE (M. smegmatis ΔEM-pMbtAtb [1]; 1 h exposure at 5 × MIC) [h]	PAE (M. smegmatis ΔEM-pMbtAtb [1]; 1 h exposure at 50 × MIC) [h]	PAE (M. smegmatis ΔEM-pMbtAtb [1]; 1 h exposure at 100 × MIC) [h]	MIC (M. smegmatis ΔEM-pMbtAtb [3]; [6]) [µg/mL]	MIC (μg/ml), mean (M. smegmatis ΔEM-pMbtAtb [3]; Table 8) [µg/mL]	MIC (μg/ml), range (M. smegmatis ΔEM-pMbtAtb [3]; Table 8)	Fractional velocity v1/v0 (PPT/PNP coupling system; [inhibitor] = 4 μM)	Fractional velocity v1/v0 (PPT/PNP coupling system; [inhibitor] = 40 µM)	IC50 (H10MbtA^opt (MbtAtb) [4]; [7]) [nM]	IC50 (H10MbtA^opt (MbtAtb) [4]; [8]) [nM]	Ki (H10MbtA^opt (MbtAtb) [5]) [µM]	MIC (M. smegmatis ΔEM-pMbtAtb [3]; [9]) [µg/mL]	further results
5′-O—[N-salicylsulfamoyl]adenosine [compound 1]	9.4 ± 1.6	14.2 ± 0.9	34.5 ± 1.8	>64	0.83 ± 8.17	0.5-1.0^b μg/ml	–	–	–	–	–	–	MIC (Msm WT; GASTD + Fe medium): >1000 µg/mL; MIC (Msm WT; GASTD medium (Fe-limiting)): >1000 µg/mL; MIC (Msm ΔM; GASTD + Fe medium): >1000 µg/mL; MIC (Msm ΔM; GASTD medium (Fe-limiting)): >1000 µg/mL; Mtb growth in the mouse lung (Mtb; monotherapy at 5.6 or 16.7 mg/kg): significant reduction of Mtb growth in the mouse lung; Dose at which in vivo toxicity was observed (Mtb; mouse): ≥ 16.7 mg/kg; Effect on MBT production [2]: inhibited MBT production; MIC (Msm ΔEM): >1000 µg/mL; Cytotoxicity against mammalian cells (mammalian cells): not cytotoxic; MIC (M. smegmatis ΔEM-pMbtAtb [3]; Table 7, Msm ΔEM-pMbtAtb (−/+), GASTD + Fe medium): >1000 µg/mL; MIC (M. smegmatis ΔEM-pMbtAtb [3]; Table 7, Msm ΔEM-pMbtAtb (−/+), GASTD medium (Fe-limiting)): 0.5 to 1.0 µg/mL; Inhibition of MbtAtb (previous in vitro studies) (MbtAtb): potent, selective, tight-binding inhibitor; MIC (Msm ΔE; GASTD + Fe medium): >1000 µg/mL; MIC (Msm ΔE; GASTD medium (Fe-limiting)): 0.5 to 1.0 µg/mL; MIC (M. tuberculosis H37Rv; GAST-D + Fe medium (100 μM FeCl3)): 0.5 to 1.0 µg/mL; MIC (M. tuberculosis H37Rv; GAST-D medium): 0.125 to 0.25 µg/mL
Nc1ncnc2c1ncn2[C@@H]1OC(CNS(=O)(=O)NC(=O)c2ccccc2O)[C@@H](O)[C@H]1O (some centres unmarked) [4a, salicyl-AMSN]	10.6 ± 2.7	18.7 ± 1.3	23.1 ± 3.1	>64	1.00 ± 0 (≈ 2.15 µM)	1.0 µg/mL (≈ 2.15 µM)	0.94	0.96	–	–	–	–	IC50 (H10MbtA^opt (MbtAtb) [4]; H10MbtA^opt at 250 nM, two independent dose-response experiments, read-out: IC50): 246 ± 2.9 nM; Ki (H10MbtA^opt (MbtAtb) [5]; H10MbtA^opt 1 μM, inhibitor 4,000-1,041 nM, minimum of five independent experiments, read-out: Ki^app): 0.295 ± 0.0239 µM
CN(C[C@H]1O[C@@H](n2cnc3c(N)ncnc32)[C@H](O)[C@@H]1O)S(=O)(=O)NC(=O)c1ccccc1O [4b, N—(N-(((2R,3S,4R,5R)-5-(6-Amino-9H-purin-9-yl)-3,4-dihydroxytetrahydrofuran-2-yl)-methyl)-N-methylsulfamoyl)-2-hydroxybenzamide]	13.4 ± 2.6	17.4 ± 4.7	10.4 ± 2.2	–	–	0.5 to 1.0 µg/mL	–	–	175 ± 4.3	179	0.159 ± 0.0081	0.83 ± 0.17 (≈ 1.73 µM)	–
COc1ncnc2c1ncn2[C@@H]1O[C@H](CNS(=O)(=O)NC(=O)c2ccccc2O)[C@@H](O)[C@H]1O [compound 6, N—(N-(((2R,3S,4R,5R)-3,4-Dihydroxy-5-(6-methoxy-9H-purin-9-yl)tetrahydrofuran-2-yl)methyl)sulfamoyl)-2-hydroxybenzamide]	–	–	–	>64	–	4.0 to 8.0 µg/mL	1.00	1.00	289 ± 16.4	273	0.277 ± 0.0122	5.33 ± 1.33 (≈ 11.1 µM)	Inhibitor behavior (IC50≈½ [E]) (H10MbtA^opt (MbtAtb) [4]; HA-MesG assay): tight-binding inhibitor behavior; Mechanism of inhibition from progress curves (H10MbtA^opt (MbtAtb) [5]; time-dependent inhibition of H10MbtAopt): slow-onset inhibitors; MIC (M. tuberculosis H37Rv; Mycobacterium tuberculosis, H37RV, 168 h, GAST-D + Fe medium (100 μM FeCl3), read-out: MIC): 0.5 to 1 µg/mL; MIC (M. tuberculosis H37Rv; Mycobacterium tuberculosis, H37RV, 168 h, GAST-D medium, read-out: MIC): 0.125 to 0.25 µg/mL (≈ 0.26 to 0.52 µM)
O=C(NS(=O)(=O)O)c1ccccc1O [compound 8, salicyl-sulfamate]	–	–	–	–	–	–	–	–	–	–	–	–	IC50 (H10MbtA^opt (MbtAtb) [4]; IC50 (mM), effect on the MbtAtb-dependent signal in the HA-MesG assay, salicyl-AMS fragments, nonspecific inhibition control): ~1e+06 nM
